Data: PubChem BioAssay AID179 (DTP/NCI, 2004)
Values joined by “and” are separate entries in the source; they are usually repeats but may differ in a detail not shown here. Equal entries are not always repeated. Active and inactive are the calls of the source.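 Rule for the calls: active = compounds giving half or more protection of infected cells from virus-caused growth loss, again on retest; inactive = the rest.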 Where a SMILES comes first, the peptide text is derived from it. Bridges are numbered along the chain shown (N, C = ends). Roman numbers before positions name the chains, in order.

System: CEM cells HIV-1 protection, formazan growth assay
Assay: NCI AIDS Antiviral Assay
Conditions: for IC50: measured here: growth of uninfected CEM cells
Outline: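 Steps: treat uninfected and HIV-1-infected human CEM cells at five drug levels; quantify growth by soluble formazan; retest any compound reaching 50% protection; classify actives from the retest.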

SMILES | EC50 | IC50 | outcome
COC1(OC)CCC2C1C1CCC(OC)(OC)C21 (stereo not drawn) | > 141 µM | > 141 µM | 
COC(=O)CCC(=O)CC1CC(=O)C2CCCN12 (stereo not drawn) |  |  | inactive
COc1ccc2c(c1)CCc1c-2n(CCN2CCCCC2)c2ccc(OC)cc12 | > 100 µM | > 100 µM | 
COc1ccc(/C=C2/N=C(N/N=C\C(O)C(O)C(O)CO)NC2=O)cc1 (stereo not drawn) | > 200 µM | 79.4 µM | inactive
CCCCCc1c2nc(c(CCCCC)c3ccc([nH]3)c(CCCCC)c3ccc([nH]3)c(CCCCC)c3nc1C=C3)C=C2 | > 200 µM | > 200 µM | 
O=c1c2ccccc2nnn1N1CCOCC1 | > 81.3 µM | > 81.3 µM | 
NC1=Nc2ccccc2Sc2nc3ccccc3n21 | > 200 µM | 8.71 µM | 
C=C1C2CCC3(CCC4C5(C)CCCC4(C=NC5)C3C2)C1O (stereo not drawn) |  |  | inactive
Cc1c(-c2nnc(-c3ccc(Cl)cc3)o2)c(=O)n(-c2ccccc2)n1C | > 200 µM | > 200 µM | 
O[C@H]1[C@H](O)[C@@H](Cn2nnc(-c3ccccc3)c2-c2ccccc2)OCO[C@@H]1Cn1nnc(-c2ccccc2)c1-c1ccccc1 | > 200 µM | 9.55 µM | 
Cc1cccc(N(CCC#N)S(=O)(=O)c2ccccc2)c1 | > 200 µM | 110 µM | 
O=S(=O)(O)c1cc(N=Nc2cc(S(=O)(=O)O)c3ccccc3c2O)ccc1/C=C/c1ccc(N=Nc2cc(S(=O)(=O)O)c3ccccc3c2O)cc1S(=O)(=O)O | 33.9 µM and 12.3 µM | 191 µM and > 200 µM | 
O=C(Nc1ccn(CCO)c(=O)n1)c1ccccc1 | > 692 µM | > 692 µM | 
O=c1c2ccccc2nc(-c2ccccc2)n1NCC1(O)OCC(O)C(O)C1O (stereo not drawn) |  |  | inactive
CCC[CH2][Sn]1([CH2]CCC)[O]CC(C)[O]1 (stereo not drawn) |  |  | inactive
C[N+]12CCCCC1C(CN1C(=O)Cc3c4ccccc4c(c4ccccc34)CC1=O)CCC2 (stereo not drawn) | > 200 µM | > 200 µM | 
Brc1ccc2c(-c3nc(-c4c[nH]c5ccccc45)cs3)c[nH]c2c1 | > 100 µM | 6.46 µM | 
COC(=O)/C=C(\C(=O)OC)c1cc(C)c2cc(C(C)C)ccc(C)c1-2 | > 200 µM | 28.2 µM | 
Cc1nc2nc3n(c(=O)c2nc1C)CCS3 |  |  | inactive
COc1ccc(NC(=O)C(=O)C2NC(=S)NC2=O)c(OC)c1 (stereo not drawn) | > 776 µM | > 776 µM | 
O=C(/C=C/c1ccc(C(F)(F)F)cc1)c1c([O-])on[n+]1-c1ccccc1 |  |  | inactive
CCC(=O)NCC1CCCN2CCCCC12 (stereo not drawn) | > 200 µM | > 200 µM | 
CSCCC(N)C(=O)NCCS(=O)(=O)O (stereo not drawn) | > 200 µM | > 200 µM | 

SMILES | EC50 | IC50 | outcome
O=C(NCCCNCCCNC(=O)c1cc(-c2ccccc2)nc2ccccc12)c1cc(-c2ccccc2)nc2ccccc12 | > 200 µM | 2.82 µM | 
COc1ccc(/C=C2\C(=O)N(C(=O)Cc3ccccc3)N=C2C)cc1OC | > 51.3 µM | > 51.3 µM | 
O=C1c2ccccc2C(=O)C1(Cl)C1(Cl)C(=O)c2ccccc2C1=O |  |  | inactive
COc1nc2c(nnn2C2OCC(O)C(O)C2O)c(=O)n1C (stereo not drawn) |  |  | inactive
CCOP(=S)(OCC)SC(C)(C)C | > 107 µM | > 107 µM | 
N#CC1C(=O)NC(=O)C(C#N)C12CCCC(C(F)(F)F)C2 (stereo not drawn) | > 200 µM | > 200 µM | 
CCN(CC)c1ccc2cc(-c3nc4ccccc4s3)c(=O)oc2c1 | > 20.4 µM | > 20.4 µM | 
N=c1o[n-][n+](-c2ccccc2)c1-c1ccccc1 |  |  | inactive
COC1/C=C/OC2(C)Oc3c(C)c(O)c4c(O)c(c(/C=N/NC5C6CC7CC(C6)CC5C7)c(O)c4c3C2=O)NC(=O)/C(C)=C/C=C/C(C)C(O)C(C)C(O)C(C)C(OC(C)=O)C1C (stereo not drawn) | > 200 µM | 9.12 µM | 
COc1cccc(C(=O)O)c1Cc1cccc2ccccc12 |  |  | inactive
CCn1cc(C(=O)O)c(=O)c2cc3c(cc21)OCO3 | > 38 µM | > 38 µM | 
C1=NCCNCCN=Cc2ccc(cc2)OCc2cccc(n2)COc2ccc1cc2 | > 100 µM | > 100 µM | 
COc1ccc(N=C(C)c2ccncc2)cc1 | > 200 µM | 10.5 µM | 
c1cc(C2=NCCO2)c2ccsc2c1 | > 200 µM | 155 µM | 
NC(=O)c1ncn(C2OC(CO)C(O)C2O)c1NC(=S)NC(=O)c1ccccc1 (stereo not drawn) | > 589 µM | > 589 µM | 
CC(=O)OC(Cc1c(O)c2c(C)cccc2oc1=O)C(C)(C)O (stereo not drawn) | > 200 µM | 91.2 µM | 
Cc1cc(C(C)(C)C)cc(Cc2cc(C(C)(C)C)cc(Cc3cc(C(C)(C)C)cc(C)c3O)c2O)c1O | > 20 µM | > 20 µM | 
COc1ccc2c(CCNS(=O)(=O)c3ccccc3)c(C(C)=O)[nH]c2c1[N+](=O)[O-] |  |  | inactive
CCOP(=O)(OCC)C(Nc1ccc(F)cc1)c1cccc([N+](=O)[O-])c1 (stereo not drawn) | > 200 µM | 55 µM | 
O=NN1C(c2ccccc2)C2CCCC(C2=O)C1c1ccccc1 (stereo not drawn) | > 58.9 µM | > 58.9 µM | 
Cc1cccc(C)c1NC(=O)C1C(=O)N(c2c(C)cccc2C)C(=O)/C1=N\NC(N)=S (stereo not drawn) | > 22.9 µM | > 22.9 µM | 
CCCCOC(=O)C1CC2OC2CC1C(=O)OCCCCOC(=O)C1CC2OC2CC1C(=O)OCCCC (stereo not drawn) | > 200 µM | 21.9 µM | 
CCOC(=O)c1cc2c3c(c1)C(=O)C(C)CN3CC(C)C2=O (stereo not drawn) |  |  | inactive

SMILES | EC50 | IC50 | outcome
O=C(/C=C/c1cccc(F)c1)c1ccccc1 | > 31.6 µM | 19.1 µM | 
C(CCCCc1nnc(N2CCCCC2)o1)CCCc1nnc(N2CCCCC2)o1 | > 200 µM | > 200 µM | 
COC(=O)OC[C@H]1O[C@@H](n2cc(C)c(=O)[nH]c2=O)CC1OC(=O)OC (stereo partly drawn) | > 200 µM | > 200 µM | 
CC(=O)OC1CCC2(C)C(CCC3C4CCC(C(C)OC(C)=O)C4NC(=O)CC32)C1 (stereo not drawn) |  |  | inactive
O=c1[nH]c2ccccc2c(O)c1/C=N/C(=S)NCCc1ccccc1 | > 200 µM | > 200 µM | 
CN1c2ccccc2NC(CC(=O)O)C2CC=CN21 (stereo not drawn) | > 955 µM | 631 µM | 
CC(=O)Nc1ccc(S(=O)(=O)NN(C)S(=O)(=O)c2ccc(C)cc2)cc1 | > 18.2 µM | > 18.2 µM | 
O=CNC12C(=O)NC(=O)C1(C(=O)O)C21CCCCC1 (stereo not drawn) | > 200 µM | > 200 µM | 
O=C1/C(=C\c2ccccc2)Oc2ccc(Cl)cc21 | > 14.5 µM | > 14.5 µM | 
CCCNC(=S)/N=C/c1c(O)cc(C)oc1=O | > 200 µM | > 200 µM | 
CCCCCCCCCCCCCCCCSS(C)(=O)=O | > 13.8 µM | 6.92 µM | 
CSc1nc(=O)c(C#N)c(-c2ccccc2)n1C1OC(COC(C)=O)C(OC(C)=O)C(OC(C)=O)C1OC(C)=O (stereo not drawn) | > 200 µM | 93.3 µM | 
O=C(CC1(O)C(=O)N(CN2CCCCC2)c2ccccc21)c1ccccc1 (stereo not drawn) | > 200 µM | 97.7 µM | 
COc1nc2ncc([C@@H](O)[C@H](O)CO)nc2c(=O)n1C | > 200 µM | > 200 µM | 
Cc1ccc2c(c1)CC1(Cc3cccc(C)c3C1=O)C2=O (stereo not drawn) | > 200 µM | > 200 µM | 
Cc1ccc(SSCC(O)C(O)CSSc2ccc(C)cc2)cc1 (stereo not drawn) |  |  | inactive
Cc1nc2c(cnn2C)cc1CCc1ccccc1 | > 200 µM | 33.9 µM | 
CC(C)c1ccc(C(c2ccc(OCC(=O)NCCN(C)C)cc2)c2ccc(C(C)C)cc(=O)c2O)c(O)c(=O)c1 |  |  | inactive
O=c1[nH]c2nn(-c3ccccc3)cc2c(=O)n1O | > 200 µM | 3.31 µM | 
Nc1nc(NCc2ccccc2)cc(NCc2ccccc2)n1 | > 20 µM | 2.75 µM | 
C/C(C/C(C)=N\N=C(N)N)=N/N=C(N)N | > 200 µM | > 200 µM | 
C/C(=C/c1cc(=O)n(C)c2ccccc12)[N+](=O)[O-] | > 200 µM | 0.832 µM | 
CC(C)C(NC(=O)C(N)CSSCC(N)C(=O)NC(C(=O)O)C(C)C)C(=O)O (stereo not drawn) (I: H-Cys-Val-OH / II: H-Cys-Val-OH; disulfide I:1-II:1; configuration not given here) |  |  | inactive

SMILES | EC50 | IC50 | outcome
O=S(=O)(O)c1ccc2c(N=Nc3cccc4ccccc34)c(O)c(S(=O)(=O)O)cc2c1 |  |  | inactive
CC(C)=CCC/C(C)=C/CCC(C(=O)COCc1ccccc1)P1(=O)OC(C)(C)CN1C(C)(C)C (stereo not drawn) | > 200 µM | 61.7 µM | 
O=S(=O)(CC#CCO)c1c2ccccc2cc2ccccc12 |  |  | inactive
CC(NNC(=O)CC(=O)N(C(=O)c1ccccc1)c1ccc(Cl)cc1)c1cc2ccccc2oc1=O (stereo not drawn) | > 200 µM | > 200 µM | 
FC(F)(F)C(F)(F)/C(=N/Nc1ccccc1)SS/C(=N\Nc1ccccc1)C(F)(F)C(F)(F)F | > 200 µM | 3.16 µM | 
COC(=O)c1ccc([As](=O)(O)O)cc1C(C)=O | > 200 µM | 148 µM | 
CC1(C)OC(=O)C(CC(=O)O)O1 (stereo not drawn) |  |  | inactive
CC(C)C[S+]1C2=C([O-])CC(C)(C)CC2=Nc2ccccc21 (stereo not drawn) | > 200 µM | > 200 µM | 
O=C(CN1CCN(c2ccccc2)CC1)c1ccc2[nH]c(=O)oc2c1 | > 200 µM | > 200 µM | 
C=C1c2nc3ccccc3n2C=C(c2ccccc2)N1c1ccc(OC)cc1 | > 200 µM | 12.9 µM | 
CCOC1=NC(C(F)(F)F)(C(F)(F)F)N=C(N2CCOCC2)O1 | > 200 µM | > 200 µM | 
CCCCCCc1cc2c(C)c(C)c(=O)oc2cc1OCCCOc1cc2oc(=O)c(C)c(C)c2cc1CCCCCC | > 22.9 µM | > 22.9 µM | 
O=P(c1ccccc1)(c1ccccc1)C(NCc1ccccc1)c1ccc(F)cc1 (stereo not drawn) | > 200 µM | 12.9 µM | 
O=C(O)c1n[nH][nH]c1=S | 126 µM | > 200 µM | 
C/C(C=C(C#N)C#N)=C\c1ccc(N(C)C)cc1 | > 21.9 µM | > 21.9 µM | 
O=C(/C=C/c1ccc(O)cc1)c1ccc2c(c1)OCO2 | > 200 µM | 33.1 µM | 
Nc1ncnc2c1sc(=S)n2-c1ccccc1 | > 52.5 µM | > 52.5 µM | 
CC(=O)Oc1cc2c(cc1OC(C)=O)[C@H]1CC[C@]3(C)[C@@H](OC(C)=O)CC[C@H]3[C@@H]1CC2 | > 200 µM | 10 µM | 
c1ccc(C2=NN2c2ccccc2)cc1 |  |  | inactive
CCOC(NC(=O)CC)(C(F)(F)F)C(F)(F)F |  |  | inactive
